We go through four compounds from publication PMC9457600, “Synthesis, Leishmanicidal, Trypanocidal, Antiproliferative Assay and Apoptotic Induction of (2-Phenoxypyridin-3-yl)naphthalene-1(2H)-one Derivatives” (Molecules, 2022).

One series has as its system HCT-116. In words: MTS antiproliferative assay HCT116. The class given is cell-based. The conditions noted are these: Homo sapiens, 72 h of incubation. From the text:
(§1) The cell lines used were acquired from the American Type Culture Collection (ATCC), CCRF-CEM (T lymphoblastic leukemia), K562 ([…]), U2OS (osteosarcoma), HCT116 (colon carcinoma), A549 (lung adenocarcinoma) and HCT116p53−/− (HCT116 cell line mutated in p53) Horizon Discovery Ltd., (Waterbeach, Cambridge, United Kingdom).
(§2) In our laboratory, IMTM, we generated the daunorubicin-resistant subline of CCRF-CEM cells (CEM-DNR bulk) and paclitaxel-resistant subline K562-TAX, as described previously. […] Both ABC transporters are involved in drug resistance. As a control, human fibroblasts MRC-5 and BJ cell lines were used. […] Adherent cells were passaged using PBS containing 0.25% trypsin plus 0.01% EDTA (ethylenediamine tetraacetic acid) every 2–3 days.
(§3) The antiproliferative activity of compounds was determined using a standard 3-(4,5-dimethylthiazol-2yl)-5-(3-carboxymethoxyphenyl)-2-(4-sulfophenyl)-2H-tetrazolium (MTS) reduction assay on a robotic high throughput screening platform (HighResBio, Boston, MA, USA) following treatment of cells for 3–7 days. The IC50 values were calculated from the appropriate dose–response curves with Dotmatics software (San Diego, CA, USA).
A general note: Formazan colour is commonly taken as a measure of viable cells.

The subject of another series is BJ. Nature of the series: MTS assay on non-malignant BJ. The note with it: noncancerous human cell line. The class given is cell-based. Here is the method:
as §2, §3

For another series, the system named is K562-TAX. In words: MTS antiproliferative assay K562-TAX. The class given is cell-based, human. The note with it: Homo sapiens, K562-Tax, 72 h, 72 h of incubation; paclitaxel-resistant.
From the text: as §1, §2, §3

A further series relates to BMDM macrophages. In words: MTT cytotoxicity on BMDM macrophages. The conditions noted are these: Mus musculus, 72 h. The class given is cell-based. From the text: (§4) T. cruzi epimastigotes MHOM/VE/92/YBM venezuelan strain were used to test the anti T. cruzi in vitro studies. The strain was maintained in a modified LIT medium with 10% fetal bovine serum (FBS). Mouse bone marrow was used to obtain BMDM macrophages. Mouse fibroblast-conditioned medium L-929 was used for the differentiation and maintenance of BMDM macrophages. We evaluated through a colorimetric method the effect of compounds 8–23 on the promastigotes of L. brasiliensis. Briefly, 96-well plates were used, where 2 × 10^6 parasites/mL were seeded. A concentration of 50 μM was used for each compound and an incubation time of 96 h at 29 °C. 3-(4,5-dimethylthiazol-2-yl)-2,5-diphenyl tetrazolium bromide (MTT) 1 μg/mL was added and incubated in darkness for 4 h, acidic isopropanol (4N) was added and the plate was read at 570 nm in a spectrophotometer Synergy HT (Biotek). Miltefosine was used as a reference drug. The EC50 calculation of the selected compound was performed using growth curves. Direct counting was used to monitor the proliferation of parasites, three independent experiments were performed for each concentration of the compounds evaluated. The in vitro evaluations of compounds toxicity by MTT in VERO and BMDM cells follow a methodology described above with some modifications. The selectivity index was calculated with SI = CC50/EC50, where CC50 was the maximum concentration range of compounds 10, 21–23 used to evaluate cytotoxicity in VERO and BMDM cells. The trypanocidal activity of compounds 8–23 was evaluated on the viability of T. cruzi epimastigotes through a colorimetric method adapted with minor modifications. 2 × 10^6 parasites/mL were seeded in a 96-well plate, adding 50 μM of each derivative dissolved in DMSO (final concentration remained below 1%). The plate was incubated for 96 h at 29 °C. Then, 1 μg/mL of 3-(4,5-dimethylthiazol-2-yl)-2,5-diphenyl tetrazolium bromide (MTT) was added and incubated in darkness for 4 h. After this time, acidic isopropanol (4N) was added and the plate was read at 570 nm in a spectrophotometer Synergy HT (Biotek). Benznidazole was used as a reference drug. The in vitro evaluations of compounds toxicity by MTT in VERO and BMDM cells follow a methodology described above with some modifications. Cells were counted in suspension and seeded at 20 × 10^3 cells/well. The test was carried out in triplicate on 96-well microplates in different concentrations: 50 μM, 100 μM, 200 μM and 300 μM, untreated cells and reference drug (benznidazole) controls.

In a further series the test system is VERO cells. In words: MTT cytotoxicity on VERO cells. The format is cell-based, African green monkey. The note with it: Chlorocebus sabaeus, 72 h. As for the experimental part: as §4, with “Vero cells” for “T. cruzi epimastigotes MHOM/VE/92/YBM venezuelan strain”, “derived from” for “used to test”, “kidney of an African green monkey, cells were” for “anti T. cruzi in vitro studies. The strain was”, “Dulbecco’s Modified Eagle’s Medium (DMEM), supplemented” for “a modified LIT medium”, “heat-inactivated FBS” for “fetal bovine serum (FBS). Mouse bone marrow was used to obtain BMDM macrophages. Mouse fibroblast-conditioned medium L-929 was used for the differentiation”, “penicillin-streptomycin solution 1% at 37 °C, 5% CO2 atmosphere and > 95% humidity.” for “maintenance of BMDM macrophages.”

The test system of the next series is CEM-DNR. In words: MTS antiproliferative assay CEM-DNR. The format is cell-based. The conditions noted are these: Homo sapiens, 72 h of incubation, daunorubicin-resistant.
From the text: as §1, §2, §3

For a further series, the system named is CCRF-CEM. Nature of the series: MTS antiproliferative assay CCRF-CEM. The conditions noted are these: Homo sapiens, 72 h of incubation. The class given is cell-based.
From the text: as §1, §2, §3

The test system of series [1] is promastigotes of Leishmania (V.) braziliensis strain MHOM/CO/87/UA301. In words: MTT viability of L. braziliensis promastigotes. The class given is cell-based.
The test system of the next series is HCT116p53−/−. Nature of the series: MTS antiproliferative assay HCT116p53-/-. The format is cell-based. The note with it: Homo sapiens; 72 h of incubation.
From the text: as §1, §2, §3

For the next series, the system named is MRC-5. In words: MTS assay on non-malignant MRC-5. The note with it: MRC5; noncancerous human cell line. The class given is cell-based. As for the experimental part: as §2, §3
The test system of a further series is K562. In words: MTS antiproliferative assay K562. The class given is cell-based, human. The note with it: Homo sapiens, K562, 72 h, 72 h of incubation.
From the text: as §1, §2, §3

Series [2] relates to epimastigotes of Trypanosoma cruzi strain MHOM/VE/92/YBM. Nature of the series: MTT viability of T. cruzi epimastigotes. The class given is cell-based. The note with it: for EC50: 72 h, epimastigotes.
For a further series, the system named is U2OS. In words: MTS antiproliferative assay U2OS. The class given is cell-based. The conditions noted are these: Homo sapiens, 72 h of incubation.
From the text: as §1, §2, §3

The test system of the next series is A549. In words: MTS antiproliferative assay A549. The format is cell-based, human. The conditions noted are these: Homo sapiens, A549, 72 h, 72 h of incubation.
From the text: as §1, §2, §3

A word on the IC50: it is the concentration needed to halve the response being measured. Usually EC50 stands for the concentration giving half of the maximal effect. Usually melting point stands for the temperature of the solid-liquid transition. In turn, `COc1ccc2c(c1)C(=O)/C(=C/c1cccnc1Oc1ccc(Cl)cc1)CC2` [Compound 23, (E)-2-{[2-(4-Chlorophenoxy)pyridin-3-yl]methylene}-3,4-dihydro-7-methoxynaphthalen-1(2H)-one] returned a melting point of 160 °C. For the same compound, the IC50 in the series on HCT-116 is above 50 µM. Further, the IC50 with BJ is above 50 µM. Also, 16.1 ± 4.44 µM corresponded to half-maximal inhibition with K562-TAX (IC50). Further, the EC50 in the series on BMDM macrophages was above 1000 µM. Also, the EC50 in the series on VERO cells was found to be 100 ± 16 µM. Further, the IC50 with CEM-DNR is 23.9 ± 4.98 µM. For the same compound, the IC50 in the series on CCRF-CEM was 15.7 ± 1.54 µM. In series [1] (72 h, promastigotes), this compound returned an EC50 of 5.69 ± 2.65 µM. For the same compound, in [1] (SI = CC50/EC50), the “SIB/Lb selectivity index on L. braziliensis/BMDM” value was 176 and the “SIV/Lb selectivity index on L. braziliensis/VERO” value came to 18. In the series with HCT116p53−/−, this compound yielded an IC50 above 50 µM. This compound returned an IC50 in the series with MRC-5 above 50 µM. In addition, in the series on K562, the IC50 was above 50 µM. Besides, in series [2] (SI = CC50/EC50), the “SIV/Tc selectivity index on T. cruzi/VERO” value was 20 and the “selectivity index T. cruzi vs BMDM (CC50/EC50)” value was above 204. Besides, a half-maximal effect in series [2] (Trypanosoma cruzi) (EC50) was put at 4.91 ± 0.98 µM. This compound returned an IC50 in the series with U2OS above 50 µM. Further, the IC50 in the series with A549 is above 50 µM.
As for `COc1ccc2c(c1)C(=O)/C(=C/c1cccnc1Oc1ccccc1)CC2` [Compound 11, (E)-3,4-Dihydro-7-methoxy-2-[(2-phenoxypyridin-3-yl)methylene]naphthalen-1(2H)-one], the melting point came out at 136 °C. The IC50 in the series on HCT-116 was above 50 µM. The IC50 in the series with BJ was above 50 µM. The IC50 in the series with K562-TAX is above 50 µM. For the same compound, the EC50 with BMDM macrophages is below 1000 µM. The EC50 with VERO cells is below 100 µM. In addition, in the series with CEM-DNR, the IC50 amounted to 45.1 ± 7.9 µM. In the series with CCRF-CEM, this compound came in with an IC50 of 8.79 ± 0.76 µM. The EC50 in series [1] (72 h, promastigotes) was at least 60 µM. The same compound showed an EC50 in series [1] (promastigotes, 72 h) above 60 µM. Moreover, in the series with HCT116p53−/−, the IC50 is above 50 µM. This compound also came in with an IC50 with MRC-5 above 50 µM. In the series on K562, this compound gave an IC50 above 50 µM. The compound also displayed an EC50 in [2] (Trypanosoma cruzi) above 60 µM. This compound also showed an IC50 in the series on U2OS above 50 µM. The compound further showed an IC50 in the series with A549 above 50 µM.
The compound `O=C1/C(=C/c2cccnc2Oc2ccc(Cl)cc2)CCc2ccccc21` [Compound 20, (E)-2-{[2-(4-Chlorophenoxy)pyridin-3-yl]methylene}-3,4-dihydronaphthalen-1(2H)-one] displayed a melting point of 130 °C. The same compound showed an IC50 in the series on HCT-116 of 26.2 ± 2.4 µM. This compound returned an IC50 in the series with BJ above 50 µM. For the same compound, the IC50 in the series on K562-TAX was 32.5 ± 2.93 µM. Further, the EC50 in the series with BMDM macrophages was above 1000 µM. The EC50 in the series on VERO cells is above 1000 µM. The IC50 with CEM-DNR came to 28.2 ± 4.83 µM. In the series on CCRF-CEM, half-maximal inhibition (IC50) was put at 6.07 ± 0.63 µM. This compound also showed an EC50 in series [1] (72 h, promastigotes) of at least 60 µM. In [1] (promastigotes, 72 h), this compound displayed an EC50 above 60 µM. This compound also returned an IC50 in the series on HCT116p53−/− of 25.6 ± 3.77 µM. Further, in the series on MRC-5, the IC50 was above 50 µM. Besides, the IC50 with K562 was found to be 23.6 ± 2.55 µM. Also, the EC50 in series [2] (Trypanosoma cruzi) is below 60 µM. Besides, the EC50 in series [2] is 57.4 ± 3.6 µM. Besides, in the series with U2OS, half-maximal inhibition (IC50) required 27.9 ± 4.13 µM. Further, in the series with A549, inhibition was half-maximal at 37 ± 3.98 µM (IC50).
Compound `COc1ccc2c(c1)CC/C(=C\c1cccnc1Oc1ccccc1)C2=O` [Compound 10, (E)-3,4-Dihydro-6-methoxy-2-[(2-phenoxypyridin-3-yl)methylene]naphthalen-1(2H)-one] showed a melting point of 134 °C. This compound also yielded an IC50 in the series with HCT-116 above 50 µM. Moreover, the IC50 with BJ was above 50 µM. In the series on K562-TAX, this compound registered an IC50 of 30.1 ± 7.28 µM. Further, the EC50 in the series on BMDM macrophages was below 1000 µM. The EC50 with VERO cells turned out to be 89 ± 15 µM. The compound further had an IC50 in the series on CEM-DNR of 33.7 ± 6.78 µM. The compound also came in with an IC50 in the series with CCRF-CEM of 13.2 ± 1.82 µM. Also, the “SIV/Lb selectivity index on L. braziliensis/VERO” value in [1] (SI = CC50/EC50) is listed as 4. The compound further returned a half-maximal inhibitory concentration (IC50) with HCT116p53−/− above 50 µM. The same compound returned a concentration for half-maximal inhibition (IC50) in the series on MRC-5 above 50 µM. In addition, in the series on K562, the IC50 was 44.6 ± 3.67 µM. The same compound gave a half-maximal effective concentration (EC50) in [2] (Trypanosoma cruzi) above 60 µM. The compound also yielded an IC50 in the series on U2OS above 50 µM. In addition, the IC50 in the series with A549 is above 50 µM.
